From patent US20220281876A1, “DEGRADATION OF BRUTON'S TYROSINE KINASE (BTK) BY CONJUGATION OF BTK INHIBITORS WITH E3 LIGASE LIGAND AND METHODS OF USE” (BEIGENE, LTD., priority 2019, published 2022) come the findings set out here.

The DC50 is the midpoint of the concentration-degradation curve.

Where only a bound is given, the exact number is not on record here.

T1 sequence (Q06187 whole entry): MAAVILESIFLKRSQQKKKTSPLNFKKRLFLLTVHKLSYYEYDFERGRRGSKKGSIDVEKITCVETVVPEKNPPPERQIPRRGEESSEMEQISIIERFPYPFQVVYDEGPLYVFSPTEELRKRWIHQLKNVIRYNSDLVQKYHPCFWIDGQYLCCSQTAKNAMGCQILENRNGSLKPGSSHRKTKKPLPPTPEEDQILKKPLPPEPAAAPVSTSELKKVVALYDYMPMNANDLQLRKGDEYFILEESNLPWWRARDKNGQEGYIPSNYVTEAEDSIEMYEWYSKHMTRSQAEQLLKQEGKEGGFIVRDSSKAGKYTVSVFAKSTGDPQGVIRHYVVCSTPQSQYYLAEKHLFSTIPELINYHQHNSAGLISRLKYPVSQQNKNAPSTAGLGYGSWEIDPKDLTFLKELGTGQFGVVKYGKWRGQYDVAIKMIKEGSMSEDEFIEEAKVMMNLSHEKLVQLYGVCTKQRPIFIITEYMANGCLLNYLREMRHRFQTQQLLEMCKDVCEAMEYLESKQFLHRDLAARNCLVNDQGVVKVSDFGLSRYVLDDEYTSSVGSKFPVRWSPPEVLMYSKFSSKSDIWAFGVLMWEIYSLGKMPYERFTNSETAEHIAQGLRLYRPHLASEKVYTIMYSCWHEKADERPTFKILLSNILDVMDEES

This assay has as its target T1, BTK (Homo sapiens, UniProt Q06187).
T1 construct: endogenous in cells; host or cells: Ramos cells
The experiment in a line: BTK cell degradation in Ramos cells (total BTK ELISA). It is filed as cell-based. Conditions: 16 h incubation, FastScan total BTK ELISA. As to the method:
Ramos cells are treated with compounds diluted in 0.1% DMSO, dilution is done according to the following protocol: (1) make 1000x stock solution in DMSO from 10 mM by 5-fold dilution, total 7 doses were included; (2) make 10x solution in cell culture medium by transferring 1 ul 1000x stock solution into 99 ul medium; (3) 11 ul of 10× solution is added to cells and incubate for 16 h.
Cells in 96 well plate are harvested by centrifugation (1200 rpm), and wash once with ice-cold PBS. Then, 100 ul 1×cell extraction buffer is added in each well. The cells are placed on a shaker for 20 min at 4° C.; 5 ul lysate is transferred to 45 ul of 1×cell extraction buffer in ELISA plate, and 50 ul of the antibody cocktail is added in each well; seal the plate and incubate 1 hour at room temperature on a plate shaker; medium is discarded from the plate, tap the plated on a paper towel, wash 3×200 ul ELISA wash buffer; add 100 ul of TMB to each well and incubate the plate in the dark for 15 min at room temperature on a shaker; add 100 ul of STOP solution to each well; read absorbance at 450 nm. The BTK ELISA assay was performed using FastScan total BTK ELISA kit (Cell Signaling Cat #36609).
Background: In an ELISA, binding on a coated surface is turned into a signal by an enzyme label.
Take `NC(=O)c1c(-c2ccc(Oc3ccccc3)cc2)nn2c1NCC[C@H]2C1CCN(C(=O)COCCCCCCCCNc2cccc3c2C(=O)N(C2CCC(=O)NC2=O)C3=O)CC1` (stereo partly drawn) [Example 26, (7S)-7-(1-(2-((8-((2-(2,6-dioxopiperidin-3-yl)-1,3-dioxoisoindolin-4-yl)amino)octyl)oxy)acetyl)piperidin-4-yl)-2-(4-phenoxyphenyl)-4,5,6,7-tetrahydropyrazolo[1,5-a]pyrimidine-3-carboxamide]: the DC50 was more than 10000 nM.
Turning to `NC(=O)c1c(-c2ccc(Oc3ccccc3)cc2)nn2c1NCC[C@H]2C1CCN(C(=O)COCCOCCOCCOCCNc2cccc3c2C(=O)N(C2CCC(=O)NC2=O)C3=O)CC1` (stereo partly drawn) [Example 27, (7S)-7-(1-(14-((2-(2,6-dioxopiperidin-3-yl)-1,3-dioxoisoindolin-4-yl)amino)-3,6,9, 12-tetraoxatetradecanoyl)piperidin-4-yl)-2-(4-phenoxyphenyl)-4,5,6,7-tetrahydropyrazolo[1,5-a]pyrimidine-3-carboxamide], the DC50 is more than 10000 nM.
The figure for `NC(=O)c1c(-c2ccc(Oc3ccccc3)cc2)nn2c1NCC[C@H]2C1CCN(C(=O)COCCOCCNC(=O)CCN2CCN(c3ccc4c(c3)C(=O)N(C3CCC(=O)NC3=O)C4=O)CC2)CC1` (stereo partly drawn) [Example 28, (7S)-7-(1-(2-(2-(2-(3-(4-(2-(2,6-dioxopiperidin-3-yl)-1,3-dioxoisoindolin-5-yl)piperazin-1-yl)propanamido)ethoxy)ethoxy)acetyl)piperidin-4-yl)-2-(4-phenoxyphenyl)-4,5,6,7-tetrahydropyrazolo[1,5-a]pyrimidine-3-carboxamide] is 1480 nM; for `NC(=O)c1c(-c2ccc(Oc3ccccc3)cc2)nn2c1NCC[C@H]2C1CCN(C(=O)COCCOCCOCCOCCNC(=O)COc2cccc3c2CN(C2CCC(=O)NC2=O)C3=O)CC1` (stereo partly drawn) [Example 29, (7S)-7-(1-(1-((2-(2,6-dioxopiperidin-3-yl)-1-oxoisoindolin-4-yl)oxy)-2-oxo-6,9, 12, 15-tetraoxa-3-azaheptadecan-17-oyl)piperidin-4-yl)-2-(4-phenoxyphenyl)-4,5,6,7-tetrahydropyrazolo[1,5-a]pyrimidine-3-carboxamide] it is 458 nM.
`NC(=O)c1c(-c2ccc(Oc3ccccc3)cc2)nn2c1NCC[C@H]2C1CCN(C(=O)CCCCNc2cccc3c2C(=O)N(C2CCC(=O)NC2=O)C3=O)CC1` (stereo partly drawn) [Example 31, (7S)-7-(1-(5-((2-(2,6-dioxopiperidin-3-yl)-1,3-dioxoisoindolin-4-yl)amino)pentanoyl)piperidin-4-yl)-2-(4-phenoxyphenyl)-4,5,6,7-tetrahydropyrazolo[1,5-a]pyrimidine-3-carboxamide] came in with a DC50 of more than 10000 nM.
For `NC(=O)c1c(-c2ccc(Oc3ccccc3)cc2)nn2c1NCC[C@H]2C1CCN(C(=O)CCCNc2cccc3c2C(=O)N(C2CCC(=O)NC2=O)C3=O)CC1` (stereo partly drawn) [Example 32, (7S)-7-(1-(4-((2-(2,6-dioxopiperidin-3-yl)-1,3-dioxoisoindolin-4-yl)amino)butanoyl)piperidin-4-yl)-2-(4-phenoxyphenyl)-4,5,6,7-tetrahydropyrazolo[1,5-a]pyrimidine-3-carboxamide] the value was more than 10000 nM; for `NC(=O)c1c(-c2ccc(Oc3ccccc3)cc2)nn2c1NCC[C@H]2C1CCN(C(=O)CCCNC(=O)COCCOCCOCCOCCNc2cccc3c2C(=O)N(C2CCC(=O)NC2=O)C3=O)CC1` (stereo partly drawn) [Example 34, (7S)-7-(1-(1-((2-(2,6-dioxopiperidin-3-yl)-1,3-dioxoisoindolin-4-yl)amino)-14-oxo-3,6,9, 12-tetraoxa-15-azanonadecan-19-oyl)piperidin-4-yl)-2-(4-phenoxyphenyl)-4,5,6,7-tetrahydropyrazolo[1,5-a]pyrimidine-3-carboxamide], 1890 nM.
